Data published in patent US12428406B2 (PMV Pharmaceuticals, Inc., priority 2019, dated 2025).

biological target: T1, p53 Y220C (Homo sapiens, UniProt P04637, Y220C); assay: In vitro DNA binding activity assay (HTRF / TR-FRET): stabilization of p53 Y220C and increase of its DNA binding activity; format: biochemical; conditions: recombinant His-tagged p53 Y220C DNA binding domain (aa 94-312), biotin-labeled consensus DNA, incubated at 27° C. or 29° C. for 60 min
T1 construct: The recombinant protein was a truncation mutant containing only amino acids 94-312 of p53; made in house; host or cells: E. coli
T1 sequence (P04637 94-312, change not shown): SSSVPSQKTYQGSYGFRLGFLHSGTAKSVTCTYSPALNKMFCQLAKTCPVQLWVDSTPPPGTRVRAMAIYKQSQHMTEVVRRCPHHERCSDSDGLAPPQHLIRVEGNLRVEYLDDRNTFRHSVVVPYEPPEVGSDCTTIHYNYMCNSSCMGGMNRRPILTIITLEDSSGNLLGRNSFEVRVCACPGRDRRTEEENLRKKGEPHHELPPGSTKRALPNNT
Procedure: The ability of a compound of the invention to stabilize p53 Y220C and increase the DNA binding activity of p53 Y220C was measured by a homogeneous time-resolved fluorescence (HTRF) assay. Recombinant His-tagged p53 Y220C used in the HTRF assay was expressed in the bacterium E. coli.
The binding of the recombinant His-tagged p53 Y220C protein and the biotin-labeled consensus DNA was measured using fluorescence resonance energy transfer (FRET). For the FRET assay, the binding between the p53 mutant and the DNA sequence was measured by detecting the fluorescence of the interaction between an anti-His antibody conjugated to allophycocyanin (APC) and streptavidin conjugated to europium to detect the biotin-labeled DNA.
The test compounds were prepared as 4.5 mM stock solutions in dimethyl sulfoxide (DMSO). The compounds of the disclosure were used to test the stabilization of p53 Y220C and increase in DNA binding activity of p53 Y220C. The stock solutions were then serially diluted 3-fold in DMSO, and 1.2 μL of the diluted solutions was added to each well of a 384-well polypropylene black plate.
The test and control samples were spun at 1200 rpm for 1 minute and incubated at room temperature for 15 minutes. […] The plates were spun at 1200 rpm for 1 minute and incubated at room temperature for 20 minutes. The assay signals were monitored by reading excitation at 340 nm, and emission fluorescence at 615 nm and 665 nm on a plate reader.
The percentage of activation of protein DNA binding in the presence of a compound of the invention compared to the absence of the compound was denoted by a SC150 value, which indicated the concentration of the compound required to increase the DNA binding activity by 50%. The SC150 values were calculated using either Prism™ or ActivityBase™.

Row | SC150 (concentration of the compound required to increase the DNA binding activity by 50%) | Compound
1 | + (+ = 0 μM ≤ SC150 < 0.05 μM) | CNS(=O)(=O)c1ccc(NCC#Cc2cc3c(N[C@H]4CC[C@H](N5CC6(CCOCC6)C5)CC4)cccc3n2CC(F)(F)F)c(OC)c1 [Compound 327A, 4-((3-(4-(((1R,4R)-4-(7-oxa-2-azaspiro[3.5]nonan-2-yl)cyclohexyl)amino)-1-(2,2,2-trifluoroethyl)-1H-indol-2-yl)prop-2-yn-1-yl)amino)-3-methoxy-N-methyl-benzenesulfonamide]
2 | + (+ = 0 μM ≤ SC150 < 0.05 μM) | CCOc1cc(S(C)(=O)=O)ccc1NCC#Cc1cc2c(N[C@H]3CCN(C)C[C@H]3F)cccc2n1CC(F)(F)F [Compound 844A]
3 | + (+ = 0 μM ≤ SC150 < 0.05 μM) | COc1cc(C(=O)O)ccc1NCC#Cc1cc2c(N[C@H]3CCN(C(C)(C)C)C[C@H]3F)cccc2n1CC(F)(F)F [Compound 1071A, 4-{[3-(4-{[(3R,4S)-1-tert-butyl-3-fluoropiperidin-4-yl]amino}-1-(2,2,2-trifluoroethyl)-1H-indol-2-yl)prop-2-yn-1-yl]amino}-3-methoxybenzoic acid]
4 | + (+ = 0 μM ≤ SC150 < 0.05 μM) | CCOCC(O)CN1CCC(Nc2cccc3c2cc(C#CCNc2ccc(S(C)(=O)=O)cc2OC)n3CC(F)(F)F)CC1 (stereo not shown) [Compound 660A, 1-ethoxy-3-{4-[(2-{3-[(4-methanesulfonyl-2-methoxyphenyl)amino]prop-1-yn-1-yl}-1-(2,2,2-trifluoroethyl)-1H-indol-4-yl)amino]piperidin-1-yl}propan-2-ol]
5 | + (+ = 0 μM ≤ SC150 < 0.05 μM) | CNC(=O)c1ccc(NCC#Cc2cc3c(NC4CCC(N5CC6(COC6)C5)CC4)cccc3n2CC(F)(F)F)c(OCCC#N)c1 [Compound 255A, 3-(2-cyanoethoxy)-N-methyl-4-{[3-(4-{[(1R,4R)-4-{2-oxa-6-azaspiro[3.3]heptan-6-yl}cyclohexyl]amino}-1-(2,2,2-trifluoroethyl)-1H-indol-2-yl)prop-2-yn-1-yl]amino}benzamide]
6 | + (+ = 0 μM ≤ SC150 < 0.05 μM) | COc1cc(S(C)(=O)=O)ccc1NCC#Cc1cc2c(N[C@@H]3CC[C@H](N(C)C)C[C@H]3F)cccc2n1CC(F)(F)F [Compound 938A]
7 | + (+ = 0 μM ≤ SC150 < 0.05 μM) | CCOc1cc(S(C)(=O)=O)ccc1NCC#Cc1cc2c(N[C@H]3CC[C@H](N(C)C)CC3)cccc2n1CC(F)(F)F [Compound 95A, (1R,4R)—N^4-(2-{3-[(2-ethoxy-4-methanesulfonylphenyl)amino]prop-1-yn-1-yl}-1-(2,2,2-trifluoroethyl)-1H-indol-4-yl)-N^1,N^1-dimethylcyclohexane-1,4-diamine]
8 | + (+ = 0 μM ≤ SC150 < 0.05 μM) | CS(=O)(=O)c1ccc(NCC#Cc2cc3c(NC4CCC(N5CC6(COC6)C5)CC4)cccc3n2CC(F)(F)F)c(OCF)c1 [Compound 257A, 2-(3-{[2-(fluoro-methoxy)-4-methane-sulfonylphenyl]amino}prop-1-yn-1-yl)-N-[(1R,4R)-4-{2-oxa-6-azaspiro[3.3]heptan-6-yl}cyclo-hexyl]-1-(2,2,2-trifluoroethyl)-1H-indol-4-amine]
9 | + (+ = 0 μM ≤ SC150 < 0.05 μM) | CCN1CCC(Nc2cccc3c2cc(C#CCNc2ccc(S(C)(=O)=O)cc2OC)n3CC(F)(F)F)CC1 [Compound 537A]
10 | + (+ = 0 μM ≤ SC150 < 0.05 μM) | COc1cc(S(=O)(=O)NC(C)=O)ccc1NCC#Cc1cc2c(NC3CCN(CC4COC(=O)O4)CC3)cccc2n1CC(F)(F)F (stereo not shown) [Compound 761A, N-[3-methoxy-4-({3-[4-({1-[(2-oxo-1,3-dioxolan-4-yl)methyl]piperidin-4-yl}amino)-1-(2,2,2-trifluoroethyl)-1H-indol-2-yl]prop-2-yn-1-yl}amino)benzenesulfonyl]acetamide]
11 | + (+ = 0 μM ≤ SC150 < 0.05 μM) | COc1cc(S(C)(=O)=O)ccc1NCC#Cc1cc2c(N[C@@H]3CCN(C(C)=O)C[C@@H]3F)cccc2n1CC(F)(F)F [Compound 862A, 1-[(3S,4R)-3-fluoro-4-[(2-{3-[(4-methanesulfonyl-2-methoxyphenyl)amino]prop-1-yn-1-yl}-1-(2,2,2-trifluoroethyl)-1H-indol-4-yl)amino]piperidin-1-yl]ethan-1-one]
12 | + (+ = 0 μM ≤ SC150 < 0.05 μM) | COCCN1CC[C@H](Nc2cccc3c2cc(C#CCNc2ccc(C(=O)OC)cc2OC)n3CC(F)(F)F)[C@H](F)C1 [Compound 902A]
13 | + (+ = 0 μM ≤ SC150 < 0.05 μM) | COc1cc(C(=O)NCC2COC(=O)O2)ccc1NCC#Cc1cc2c(N[C@@H]3CCN(C)C[C@@H]3F)cccc2n1CC(F)(F)F (stereo partly drawn) [Compound 968A, 4-{1[3-(4-{1[(3S,4R)-3-fluoro-1-methylpiperidin-4-yl]amino}-1-(2,2,2-trifluoroethyl)-1H-indol-2-yl)prop-2-yn-1-yl]amino}-3-methoxy-N-[(2-oxo-1,3-dioxolan-4-yl)methyl]benzamide]
14 | + (+ = 0 μM ≤ SC150 < 0.05 μM) | CN1CCC(Nc2cccc3c2cc(C#CCNc2ccc(S(C)(=O)=O)cc2OC(F)(F)F)n3CC(F)(F)F)CC1 [Compound 466A]
15 | + (+ = 0 μM ≤ SC150 < 0.05 μM) | CCC(=O)OCC(O)CN1CCC(Nc2cccc3c2cc(C#CCNc2ccc(S(C)(=O)=O)cc2OC)n3CC(F)(F)F)CC1 (stereo not shown) [Compound 594A]
16 | + (+ = 0 μM ≤ SC150 < 0.05 μM) | COc1cc(S(C)(=O)=O)ccc1NCC#Cc1cc2c(NC3CCC(N(C)C)CC3F)cccc2n1CC(F)(F)F (stereo not shown) [Compound 41A]
17 | + (+ = 0 μM ≤ SC150 < 0.05 μM) | COc1cc(S(N)(=O)=O)ccc1NCC#Cc1cc2c(N[C@H]3CC[C@H](N4CCC5(CCOCC5)CC4)CC3)cccc2n1CC(F)(F)F [Compound 418A, 3-methoxy-4-{[3-(4-{[(1R,4R)-4-{3-oxa-9-azaspiro[5.5]undecan-9-yl}cyclohexyl]amino}-1-(2,2,2-trifluoroethyl)-1H-indol-2-yl)prop-2-yn-1-yl]amino}benzene-1-sulfonamide]
18 | + (+ = 0 μM ≤ SC150 < 0.05 μM) | CNS(=O)(=O)c1ccc(NCC#Cc2cc3c(N[C@H]4CC[C@@H](N(C)C)CC4)cccc3n2CC(F)(F)F)c(OC)c1 [Compound 72A, 3-methoxy-N-methyl-4-{[3-(4-{[(1S,4S)-4-(dimethylamino)cyclohexyl]amino}-1-(2,2,2-trifluoroethyl)-1H-indol-2-yl)prop-2-yn-1-yl]amino}benzene-1-sulfonamide]
19 | + (+ = 0 μM ≤ SC150 < 0.05 μM) | COc1cc(S(C)(=O)=O)ccc1NCC#Cc1cc2c(N[C@H]3CCN(C(=O)CN(C)C)C[C@H]3F)cccc2n1CC(F)(F)F [Compound 856A, 2-(dimethylamino)-1-[(3R,4S)-3-fluoro-4-[(2-{3-[(4-methanesulfonyl-2-methoxyphenyl)amino]prop-1-yn-1-yl}-1-(2,2,2-trifluoroethyl)-1H-indol-4-yl)amino]piperidin-1-yl]ethan-1-one]
